Experimental data published in article PMC11677527, “Predicting Pharmacokinetics of Active Constituents in Spatholobi caulis by Using Physiologically Based Pharmacokinetic Models” (Pharmaceuticals, 2024).
Like-named read-outs stand apart in the source and are kept apart here.

Columns and labels:
[1] = Observed pharmacokinetics in rats after oral SPC (previous study); type: in vivo, rat; settings: p.o. SPC
[2] = Verification pharmacokinetic experiment in rats, SPC 60 g crude drug/kg by gavage, UFLC-MS/MS, DAS 2.0; type: in vivo, rat
Description: To validate the accuracy of PBPK models in predicting the pharmacokinetics of SPC constituents at different oral doses, the pharmacokinetic behavior of these four constituents from SPC in rats were analyzed by UFLC-MS/MS. The parameters were calculated using Drug and Statistics Software version 2.0, and then these validated values (Val.) were used to check the accuracy of the Calc. values and evaluated by FE.
The pharmacokinetic fitting results of rats given 60 g crude drug/kg body weight of SPC by gavage were verified by experiments. The verification experiment was conducted according to our previous pharmacokinetic study. In brief, 1.5 mL suspension of SPC was given to rats by oral administration; 300 μL blood samples from orbital venous at 0.083, 0.25, 0.5, 0.75, 1.0, 1.5, 2, 3, 4, 6, 8, and 12 h were collected and pretreated with heparin sodium. After centrifugation, the plasma samples were obtained and further processed for subsequent detection by UFLC-MS/MS; the detailed analysis method is shown in Supplementary Data (Table S1 and Figure S1). The concentration-time curve of each compound was gained, and the pharmacokinetic parameters were calculated using DAS 2.0 software (DAS 2.0, Mathematical Pharmacology Professional Committee of China, Shanghai, China). The results of these four constituents were compared with the PBPK parameters predicted in rats at an oral dose of 60 g crude drug/kg body weight of SPC.
1. The instrument and analytical conditions of UFLC-MS/MS method
4 constituents (1. 3′-methoxydadizein; 2. 8-O-methylretusin; 3. Daidzin; and 4. […]
The internal standard (IS) carbamazepine with a purity of more than 99 % was purchased from Beijing JK-chemical technology Co. Ltd., (Beijing China). Heparin sodium was gained from Tianjin biochemical pharmaceutical Co. Ltd, (Tianjin, China).
Ammonium acetate of HPLC grade, methanol and acetonitrile of LC-MS grade were purchased from Sigma (LOT# BCBK6717V, sigma-aldrich, Co., MO, USA) and Fisher (Fisher Corp., Fair lawn, NJ, USA) respectively. The experimental ultrapure water was prepared by Millipore Milli-Q ultrapure water preparation apparatus (Millipore Sigma, […]
The detailed information of Shimadzu UFLC-MS/MS 8050 liquid mass system equipped with Nexera X2UFLC liquid chromatography system and 8050 triple quadrupole mass spectrometers with an electrospray ionization source were listed in our previous study. The supporting LabSolution workstation was used for data […]
The separation without superposition of analytes in plasma sample was achieved on a Kinetex® C18 chromatographic column (100mm×2.1mm i.d.; 2.6 μm, 100 Å; Phenomenex, Inc., Torrance, CA, USA) assembled with a Phenomenex p/n AJ0-9000 C18 protection column. The mobile phase was consisted of 0.5 mM ammonium acetate in water (A) and ACN (B). The gradient elution program was selected ultimately as […]
95 % B (18.7–22 min). Column and automatic sampler temperature were set as 30 °C and 4 °C respectively. The flow rate of mobile phase was 0.35 mL/min while sample injection volume was 4 μL.
Multiple reaction monitoring (MRM) of positive or negative modes were used as scanning modes for the analytes and IS. Other essential parameters were successively optimized as: Nebulizing gas flow, 3 L/min; Heating gas flow, 10 L/min; Drying gas flow, 10 L/min; Interface temperature, 300 °C; DL temperature, 250 °C; Interface and detector voltage were each set as 3.0 kV and 1.8 kV. The detection parameters such as retention time (RT), dwell time (DT), quadrupole 1 pre-rod bias (Q1), collision energy […]
Table S1 The retention time and ion equivalent parameters of 4 constituents in rat […]
Constituents Retention Precursor Precursor Product time Pre energy Pre time (min) ion species ion ion (msec) Bias (V) Bias

Caco-2 cell monolayer = system: Caco-2 cell monolayer; parameters: method as in PMID 36680806, PMID 26501241; settings: Caco-2 cell monolayer model; cited from earlier work
[3] = parameters: method as in PMID 34303214; settings: rats, p.o. SPC 30 g crude drug/kg; doses of 1-4: 0.062, 0.11, 0.71, 1.31 mg/kg; cited from earlier work
[4] = compartment model parameters, DAS 2.0, rats p.o. SPC 60 g crude drug/kg, Mean, 5 rats
[5] = statistical moment parameters, DAS 2.0, rats p.o. SPC 60 g crude drug/kg, Mean, 5 rats
[6] = statistical moment parameters, DAS 2.0, rats p.o. SPC 60 g crude drug/kg, Mean, 5 rats, in µg·h²/mL

COc1cc([C@H]2c3cc(O)c(OC)cc3C[C@@H](CO)[C@@H]2CO)ccc1O [Constituent 4, isolariciresinol]
time of slight secondary absorption peak [1]: 6 h
K10 [2, 4]: 7.512 h⁻¹
K12 [2, 4]: 0.448 h⁻¹
K21 [2, 4]: 0.247 h⁻¹
Ka [2, 4]: 5.032 h⁻¹
Tlag [2, 4]: 0 h
V1/F [2, 4]: 29.573 L/kg
t1/2Ka [2, 4]: 10.5 min
t1/2α [2, 4]: 26 min
concentration at 0.083 h ([2]; rat, plasma, oral, time 0.083 h, rats p.o. SPC 60 g crude drug/kg, doses of 1-4: 0.124, 0.22, 1.4, 2.62 mg/kg, 5 rats): 15.4 ng/mL
concentration at 0.25 h ([2]; rat, plasma, oral, time 0.25 h, rats p.o. SPC 60 g crude drug/kg, doses of 1-4: 0.124, 0.22, 1.4, 2.62 mg/kg, 5 rats): 41.5 ng/mL
concentration at 0.5 h ([2]; rat, plasma, oral, time 0.5 h, rats p.o. SPC 60 g crude drug/kg, doses of 1-4: 0.124, 0.22, 1.4, 2.62 mg/kg, 5 rats): 41.7 ng/mL
concentration at 0.75 h ([2]; rat, plasma, oral, time 0.75 h, rats p.o. SPC 60 g crude drug/kg, doses of 1-4: 0.124, 0.22, 1.4, 2.62 mg/kg, 5 rats): 27.6 ng/mL
concentration at 1 h ([2]; rat, plasma, oral, time 1 h, rats p.o. SPC 60 g crude drug/kg, doses of 1-4: 0.124, 0.22, 1.4, 2.62 mg/kg, 5 rats): 22.2 ng/mL
concentration at 1.5 h ([2]; rat, plasma, oral, time 1.5 h, rats p.o. SPC 60 g crude drug/kg, doses of 1-4: 0.124, 0.22, 1.4, 2.62 mg/kg, 5 rats): 8.29 ng/mL
concentration at 2 h ([2]; rat, plasma, oral, time 2 h, rats p.o. SPC 60 g crude drug/kg, doses of 1-4: 0.124, 0.22, 1.4, 2.62 mg/kg, 5 rats): 7.03 ng/mL
concentration at 3 h ([2]; rat, plasma, oral, time 3 h, rats p.o. SPC 60 g crude drug/kg, doses of 1-4: 0.124, 0.22, 1.4, 2.62 mg/kg, 5 rats): 4.27 ng/mL
concentration at 4 h ([2]; rat, plasma, oral, time 4 h, rats p.o. SPC 60 g crude drug/kg, doses of 1-4: 0.124, 0.22, 1.4, 2.62 mg/kg, 5 rats): 3.41 ng/mL
concentration at 6 h ([2]; rat, plasma, oral, time 6 h, rats p.o. SPC 60 g crude drug/kg, doses of 1-4: 0.124, 0.22, 1.4, 2.62 mg/kg, 5 rats): 2.01 ng/mL
AUC(0-t) ([2]; rat, plasma, po, 2.62 mg/kg, compartment model parameters, DAS 2.0, rats p.o. SPC 60 g crude drug/kg, Mean, 5 rats, read-out: AUC(0-t)): 46.4 ng·h/mL
AUC(0-inf) ([2]; rat, plasma, po, 2.62 mg/kg, compartment model parameters, DAS 2.0, rats p.o. SPC 60 g crude drug/kg, Mean, 5 rats, read-out: AUC(0-∞)): 52.8 ng·h/mL
CL/F ([2]; rat, plasma, po, 2.62 mg/kg, compartment model parameters, DAS 2.0, rats p.o. SPC 60 g crude drug/kg, Mean, 5 rats, read-out: CL/F (converted)): 1660 mL/min/kg
half-life ([2]; rat, plasma, po, 2.62 mg/kg, compartment model parameters, DAS 2.0, rats p.o. SPC 60 g crude drug/kg, Mean, 5 rats, read-out: t1/2β (converted)): 1050 min
AUC(0-t) ([2]; rat, plasma, po, 2.62 mg/kg, rats, p.o. SPC 60 g crude drug/kg, doses of 1-4: 0.124, 0.22, 1.42, 2.62 mg/kg, n = 5, read-out: AUC0→t Val.): 55.7 ng·h/mL
AUC(0-inf) ([2]; rat, plasma, po, 2.62 mg/kg, rats, p.o. SPC 60 g crude drug/kg, doses of 1-4: 0.124, 0.22, 1.42, 2.62 mg/kg, n = 5, read-out: AUC0→∞ Val.): 59.3 ng·h/mL
Cmax ([2]; rat, plasma, po, 2.62 mg/kg, rats, p.o. SPC 60 g crude drug/kg, doses of 1-4: 0.124, 0.22, 1.42, 2.62 mg/kg, n = 5, read-out: Cmax Val.): 41.7 ng/mL
AUC(0-t) ([2]; rat, plasma, po, 2.62 mg/kg, statistical moment parameters, DAS 2.0, rats p.o. SPC 60 g crude drug/kg, Mean, 5 rats, read-out: AUC(0-t)): 55.7 ng·h/mL
AUC(0-inf) ([2]; rat, plasma, po, 2.62 mg/kg, statistical moment parameters, DAS 2.0, rats p.o. SPC 60 g crude drug/kg, Mean, 5 rats, read-out: AUC(0-∞)): 59.3 ng·h/mL
CL/F ([2]; rat, plasma, po, 2.62 mg/kg, statistical moment parameters, DAS 2.0, rats p.o. SPC 60 g crude drug/kg, Mean, 5 rats, read-out: CLz/F (converted)): 738 mL/min/kg
Cmax ([2]; rat, plasma, po, 2.62 mg/kg, statistical moment parameters, DAS 2.0, rats p.o. SPC 60 g crude drug/kg, Mean, 5 rats, read-out: Cmax): 41.7 ng/mL
MRT last ([2]; rat, plasma, po, 2.62 mg/kg, statistical moment parameters, DAS 2.0, rats p.o. SPC 60 g crude drug/kg, Mean, 5 rats, read-out: MRT(0-t)): 1.48 h
MRT inf ([2]; rat, plasma, po, 2.62 mg/kg, statistical moment parameters, DAS 2.0, rats p.o. SPC 60 g crude drug/kg, Mean, 5 rats, read-out: MRT(0-∞)): 2.08 h
Tmax ([2]; rat, plasma, po, 2.62 mg/kg, statistical moment parameters, DAS 2.0, rats p.o. SPC 60 g crude drug/kg, Mean, 5 rats, read-out: Tmax): 18 min
Vd/F ([2]; rat, plasma, po, 2.62 mg/kg, statistical moment parameters, DAS 2.0, rats p.o. SPC 60 g crude drug/kg, Mean, 5 rats, read-out: Vz/F): 111 L/kg
half-life ([2]; rat, plasma, po, 2.62 mg/kg, statistical moment parameters, DAS 2.0, rats p.o. SPC 60 g crude drug/kg, Mean, 5 rats, read-out: t1/2z (converted)): 104 min
Cz [2, 5]: 1.39 µg/L
VRT(0-t) [2, 5]: 2.067 h^2
VRT(0-∞) [2, 5]: 6.027 h^2
elimination rate constant [2, 5]: 0.412 h⁻¹
AUMC(0-t) [2, 6]: 82.484
AUMC(0-∞) [2, 6]: 123.911
Papp (Caco-2 cell monolayer): 2.2e-06 cm/s
AUC0→t Obs. [3]: 0.0347 µg·h/mL
AUC0→∞ Obs. [3]: 0.0383 µg·h/mL
Cmax Obs. [3]: 0.0262 µg/mL
Tmax Obs. [3]: 18.6 min
